In BindingDB's records for patent US11845767 (Rijksuniversiteit Groningen, 2023):

Key:
Arginase-1 = target: T1, Arginase-1 (Homo sapiens, UniProt P05089); assay: Inhibition of Arginase
T1 sequence (P05089 whole entry): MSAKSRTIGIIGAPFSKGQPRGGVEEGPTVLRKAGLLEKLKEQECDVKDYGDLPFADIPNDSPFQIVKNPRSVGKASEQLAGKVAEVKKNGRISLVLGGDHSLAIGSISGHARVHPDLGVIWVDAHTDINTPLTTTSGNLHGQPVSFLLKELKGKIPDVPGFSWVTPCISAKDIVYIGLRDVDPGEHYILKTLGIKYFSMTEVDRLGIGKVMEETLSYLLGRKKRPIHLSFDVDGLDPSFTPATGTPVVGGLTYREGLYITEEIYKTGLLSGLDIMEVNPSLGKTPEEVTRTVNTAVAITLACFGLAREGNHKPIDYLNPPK
Method: (§1) Inhibition of arginase I (ARG I) and arginase II (ARGG II) novel compounds is followed spectrophotometrically at 530 nm. The compound to be tested is dissolved in H2O and prepared 100 mM stock solution. 10 μl of the stock solution is diluted in 90 μl of the assay buffer that comprises 0.1M sodium phosphate buffer containing 130 mM NaCl, pH 7.4, to which is added ovalbumin (OVA) at a concentration of 1 mg/mi. Solutions of arginase I and II are prepared in 100 mM sodium phosphate buffer, pH 7.4 containing 1 mg/ml OVA to give an arginase stock solution at a final concentration of 100 ng/ml. To each well of a 96-well microtiter plate is add 40 μl of enzyme, 10 μl of an inventive compound and 10 μl of enzyme substrate (L-arginine+manganese sulfate). For wells that are used as positive controls, only the enzyme and its substrate are added, while wells used as negative controls contain only manganese sulfate. After incubating the microtiter plate at 37° C. for 60 minutes, 150 μl of a urea reagent obtained by combining equal proportions (1:1) of reagents A and B is added to each well of the microtiter plate to stop the reaction. The urea reagent is made just before use by combining Reagent A (10 mM o-phthaldialdehyde, and 0.4% polyoxyethylene (23) lauryl ether (w/v) in 1.8 M sulfuric acid) with Reagent B (1.3 mM […], 0.4% polyoxyethylene (23) lauryl ether (w/v), 130 mM boric acid in 3.6 M sulfuric acid). After quenching the reaction mixture, the microtiter plate is allowed to stand for an additional 10 minutes at room temperature to allow color development. T

[1] = target: T2, Arginase-2, mitochondrial (Homo sapiens, UniProt P78540); assay: Inhibition of Arginase
T2 sequence (P78540 whole entry): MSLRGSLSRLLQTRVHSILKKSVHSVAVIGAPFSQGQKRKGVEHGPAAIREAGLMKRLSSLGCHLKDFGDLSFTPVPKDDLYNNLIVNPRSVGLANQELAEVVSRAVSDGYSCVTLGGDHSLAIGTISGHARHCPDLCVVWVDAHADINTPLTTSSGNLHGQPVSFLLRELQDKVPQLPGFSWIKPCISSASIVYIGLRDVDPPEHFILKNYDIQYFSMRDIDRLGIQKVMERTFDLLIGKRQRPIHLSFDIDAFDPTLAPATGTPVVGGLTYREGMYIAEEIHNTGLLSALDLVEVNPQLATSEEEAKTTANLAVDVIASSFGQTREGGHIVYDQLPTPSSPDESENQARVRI
Method: as §1

IC50 (Arginase-1) [nM]	IC50 [1] [nM]	Structure (SMILES)
14	–	CCCCNC(=O)Cn1nnnc1C(N)CCCCB(O)O (stereo not given) [US11845767, Example 271]
340	–	NC(CCCCB(O)O)c1nnnn1CC(=O)N1CCOCC1 (stereo not given) [US11845767, Example 274]
< 101	–	NC(CCCCB(O)O)c1nnnn1CCc1ccc(Br)cc1 (stereo not given) [US11845767, Example 313]
15.5	18.6	NC(CCCCB(O)O)c1nnnn1CC(=O)NCc1ccc(Cl)cc1F (stereo not given) [US11845767, Example 318]
